Laboratory results published in patent US20250268931A1, “TRANSCRIPTIONAL INHIBITOR FOR IMMUNE-RELATED GENE” (The University of Tokyo, priority 2022, published 2025).

Columns and labels:
IFN-β = IFN-β concentration in culture supernatant of LPS-stimulated Raw264.7 cells (ELISA); assay type: cell-based; conditions: PIPA 1, 3 or 10 μM 24 h, then LPS 20 ng/mL 16 h
Procedure: Raw264.7 cells, a macrophage cell line, were seeded on a 96-well plate at a cell density of 2×10^4 cells/well, and were then culture for 8 hours for adhesion. Thereafter, IRF-PIPA was added to the cultured cells to final concentrations of 1, 3, or 10 μM. After completion of the culture for 24 hours, LPS was added to the cultured cells to a final concentration of 20 ng/mL, and the obtained mixture was then cultured for 16 hours, followed by the recovery of the supernatant. The supernatant was 2-fold diluted with 1% BSA-PBS, and the IFN-β concentration was then measured by ELISA.
Raw264.7 cells, a cell line, were purchased from RIKEN Cell Bank, and were then cultured using D-MEM (Nacalai Tesque) containing 10% FBS (SIGMA-ALDRICH) and Penicillin-Streptomycin mixed solution (Nacalai Tesque).
(§1) 2×10^4 Raw264.7 cells were seeded on a plate, and were then treated with IRF-PIPA 1, IRF-PIPA 2, IRF-PIPA 3 or IRF-PIPA 4 for 24 hours. Thereafter, the cells were stimulated with LPS (Lipopolysaccharide, SIGMA-ALDRICH) for 16 hours, and the culture supernatant was then recovered. The concentration of cytokine in the culture supernatant was measured using ELISA kit (R&D SYSTEMS) according to the standard protocols. The culture supernatant was diluted with 1% BSA-PBS, as necessary, and was then analyzed. 2.5×10^5 Mouse peritoneal macrophages were seeded on a plate, and were then treated with IRF-PIPA 3 for 16 or 24 hours. Thereafter, the cells were stimulated with Poly(I:C) (InvivoGen) for 16 hours or with mRNA vaccine (Moderna) for 20 to 24 hours, and the culture supernatant was then recovered. The concentration of cytokine in the culture supernatant was measured using ELISA kit (R&D SYSTEMS) according to the same standard protocols. On the other hand, the concentration of cytokine in mouse plasma was measured by administering 400 μg/mouse IRF-PIPA 3 into the abdominal cavity of wild-type mice, then administering 250 μg of Poly(I:C) into the same abdominal cavity 24 hours after the IRF-PIPA 3 administration, then collecting blood further 2 hours after the Poly(I:C) administration, and then measuring the cytokine concentration in the plasma using ELISA kit (R&D SYSTEMS) according to standard protocols.

IFN-β, IL-6 and TNF-α [1] = test: Cytokine protein expression in peritoneal macrophages treated with LNP-mRNA encoding ovalbumin (ELISA); assay type: cell-based, mice; conditions: 6 μM, LNP-mRNA (OVA) 0.5 μg/mL 20 to 24 hours
Procedure: Peritoneal macrophages were harvested from wild-type mice, and were then seeded on a 96-well plate at a cell density of 2.5×10^5 cells/well, followed by culturing for 2 hours. Thereafter, the cultured cells were washed twice with PBS. Subsequently, IRF-PIPA 3 was suspended in 10% FBS-RPMI or D-MEM to a final concentration of 6 μM, and was then added to the wells. After completion of the culture for 16 hours, an mRNA vaccine was added to the cultured cells to a final concentration of 0.5 μg/mL, and the obtained mixture was then cultured for 20 to 24 hours. Thereafter, the culture supernatant was recovered, and each protein concentration of IFN-β, IL-6 or TNF-α was then measured by ELISA.
as §1, with “Thereafter, the cells were stimulated with Poly(I:C) (InvivoGen) for 16 hours or with mRNA vaccine (Moderna) for 20 to 24 hours, and the culture supernatant was then recovered.” left out

IFN-β, IL-6 and TNF-α [2] = test: In vivo cytokine protein concentration in plasma after Poly(I:C) (ELISA); set-up: species or system mice
Procedure: […] Two hours after the administration of Poly(I:C), blood was collected, and individual protein concentrations of IFN-β, IL-6 and TNF-α in the plasma were then measured by an ELISA method.
as §1

[3] = tested on: Ifnb1, Il6, and Tnf genes; test: In vivo relative mRNA expression in peritoneal macrophages after Poly(I:C) (qRT-PCR); set-up: species or system mice; conditions: 400 μg/mouse i.p., Poly(I:C) 250 μg/mouse i.p. 3 h later, peritoneal macrophages 2 h later
Procedure: IRF-PIPA 3 was administered into the abdominal cavity of wild-type mice in an amount of 400 μg/mouse, and 3 hours after the administration, 250 μg/mouse Poly(I:C) was also administered into the abdominal cavity. Two hours after the administration of Poly(I:C), peritoneal macrophages were recovered, and the relative expression levels of Ifnb1, Il6, and Tnf genes were then analyzed by qRT-PCR.

peritoneal macrophages = test: Cytotoxic activity: dsDNA concentration and LDH activity in culture supernatant; assay type: cell-based, mice
Procedure: In order to verify the cytotoxic activity of IRF-PIPA 3, dsDNA concentration (left view in the figure) and LDH concentration (right view in the figure) in the culture supernatant were measured. The same experiment as that in FIG. 2 was carried out, and the culture supernatant was recovered. A lysate obtained by mixing 2.5×10^5 peritoneal macrophages with 90 μL of 10% FBS-RPMI or D-MEM medium and 10 μL of Lysis Buffer, and then disrupting the cells, was used as a positive control. […] Using Octet K2, the binding of each concentration of IRF-PIPA 3 shown in the figure and a target DNA sequence was analyzed. After mixing a PIPA solution with target DNA, the binding of the two substances was measured for 60 seconds. […] From changes in the binding and dissociation at each concentration over time, a Kd value was calculated as a dissociation constant indicating a binding force.
The concentration of dsDNA in the culture supernatant was measured using Nano drop one (Thermo Fisher SCIENTIFIC). In LDH assay, LDH activity was measured using Cytotoxicity LDH Assay Kit-WST (DOJINDO LABORATORIES) according to standard protocols. As a positive control, a lysate obtained by mixing 2.5×10^5 peritoneal macrophages with 90 μL of 10% FBS-RPMI or D-MEM medium and 10 μL of Lysis Buffer, and then disrupting the cells, was used.

[4] = 400 μg/mouse i.p., Poly(I:C) 250 μg/mouse i.p. 24 hours, 1, 4 or 7 days later, blood 2 h later
[5] = plasma IFN-β, IL-6, TNF-α, Poly(I:C) 1, 4 or 7 days after IRF-PIPA 3
[6] = peritoneal macrophages, same experiment as FIG. 2 (3 or 10 μM)

CC(=O)Nc1cn(C)c(C(=O)Nc2cc(C(=O)NCCC(=O)Nc3cc(C(=O)Nc4cn(C)c(C(=O)NCCC(=O)Nc5cn(C)c(C(=O)NCCCC(=O)Nc6cc(C(=O)Nc7cc(C(=O)Nc8cc(C(=O)NCCC(=O)Nc9cc(C(=O)Nc%10cc(C(=O)NCCC(=O)NCCCN(C)C)n(C)c%10)n(C)c9)n(C)c8)n(C)c7)n(C)c6)n5)n4)n(C)c3)n(C)c2)n1 [IRF-PIPA 3]
concentration dependence of suppression of IFN-β production (IFN-β): concentration-dependent suppression was observed
suppression of IFN-β production (IFN-β; ELISA of supernatant): strongest suppressive action among the 4 PIPAs
expression of IFN-β protein after LNP-mRNA (IFN-β, IL-6 and TNF-α [1]): strongly suppressed
expression of IL-6 protein after LNP-mRNA (IFN-β, IL-6 and TNF-α [1]): strongly suppressed
expression of TNF-α protein after LNP-mRNA (IFN-β, IL-6 and TNF-α [1]): strongly suppressed
IFN-β protein concentration in plasma (IFN-β, IL-6 and TNF-α [2]; [4]): significantly suppressed
IL-6 protein concentration in plasma (IFN-β, IL-6 and TNF-α [2]; [4]): significantly suppressed
TNF-α protein concentration in plasma (IFN-β, IL-6 and TNF-α [2]; [4]): significantly suppressed
time after administration of highest suppressive effect (IFN-β, IL-6 and TNF-α [2]; [5]): 1 days
time after administration until which the suppressive effect was sustained (attenuated) (IFN-β, IL-6 and TNF-α [2]; [5]): ≥ 7 days
expression level of Ifnb1 mRNA in vivo [3]: significantly suppressed
expression level of Il6 mRNA in vivo [3]: significantly suppressed
expression level of Tnf mRNA in vivo [3]: significantly suppressed
cytotoxic activity (peritoneal macrophages; concentration range in which IRF-PIPA 3 shows strong suppressive action): does not exhibit cytotoxic activity
LDH activity in the culture supernatant (peritoneal macrophages; [6]): not increased at all
amount of DNA in the culture supernatant (peritoneal macrophages; [6]): not increased at all
